According to US8686044B2, “Amide derivative, pest control agent containing the amide derivative, and use of the amide derivative” (Mitsui Chemicals Agro, Inc., priority 2008, dated 2014):

Key:
Format in all cases: in vivo
Spodoptera litura = assay: Pesticidal test against Spodoptera litura (cabbage leaf dip); conditions: foliar, 144 h, concentration 1 ppm, 2-stage larvae, examined after 6 days, 25° C., read-out: pesticidal rate
Method in brief: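 Cabbage leaf pieces dipped 30 seconds in compound solution at a predetermined concentration and air-dried, then offered to second-stage larvae, five per group in two replicates. Held at 25° C. Living and dead larvae counted after 6 days.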

Plutella xylostella = assay: Pesticidal test against Plutella xylostella (cabbage leaf dip); conditions: foliar, 144 h, concentration 1 ppm, 2-stage larvae, examined after 6 days, 25° C., read-out: pesticidal rate
Method in brief: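 Cabbage leaf pieces dipped 30 s in test solution at a predetermined concentration, air-dried, then offered to 2nd-instar larvae, five per group in duplicate. Held at 25° C; living and dead larvae counted after 6 days.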

Adoxophyes honmai = assay: Pesticidal test against Adoxophyes honmai (artificial feed dip); conditions: 144 h, 2-stage larvae, examined after 6 days, 25° C., read-out: pesticidal rate; for pest or weed control at 1 ppm: concentration 1 ppm; for pest or weed control at 10 ppm: concentration 10 ppm
Method in brief: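 Thin artificial feed slices dipped 30 s in test solution at a predetermined concentration, air-dried, then offered to 2nd-stage larvae. Kept at 25° C; live and dead larvae counted after 6 days. Five larvae per group, two replicates.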

Choristoneura magnanima = assay: Pesticidal test against Choristoneura magnanima (artificial feed dip); conditions: 144 h, 2-stage larvae, examined after 6 days, 25° C., read-out: pesticidal rate; for pest or weed control at 1 ppm: concentration 1 ppm
Method in brief: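 Thin artificial feed slices dipped 30 s in compound solution at a set concentration, air-dried, then offered to 2nd-stage larvae held at 25° C. Living and dead larvae counted after 6 days; five larvae per group, two replicates.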

Helicoverpa armigera = assay: Pesticidal test against Helicoverpa armigera (cabbage leaf disk dip); conditions: foliar, 72 h, concentration 1 ppm, 2-stage larvae, examined after 3 days, 25° C., read-out: pesticidal rate
Method in brief: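 Cabbage leaf disks were dipped for 30 s in test solution at a set concentration and air-dried. Second-instar larvae were placed one per hole and held at 25 °C, with live and dead counts taken after 3 days. Five larvae per group were tested in two replicates.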

Laodelphax striatellus = assay: Pesticidal test against Laodelphax striatellus (rice seedling spray); conditions: 144 h, concentration 100 ppm, 3-stage larvae, examined after 6 days, 25° C., read-out: pesticidal rate
Method in brief: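 Rice seedlings sprayed with 2.5 ml acetone solution of compound at a predetermined concentration, air-dried, then infested with third-stage Laodelphax striatellus larvae in capped water-containing tubes at 25 °C. Living and dead insects counted after 6 days; ten larvae per group, two replicates.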

Musca domestica = assay: Pesticidal test against Musca domestica (petri dish dry film); conditions: 24 h, concentration 100 ppm, female adults, examined after 1 day, 25° C., read-out: pesticidal rate
Method in brief: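 Dry film from 1 ml acetone solution of compound at a predetermined concentration, air-dried in a 9 cm petri dish; female adult flies released and dish capped. Held at 25° C; living and dead counted after 1 day. Five insects per group, two replicates.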

Blattella germanica = assay: Pesticidal test against Blattella germanica (petri dish dry film); conditions: 24 h, concentration 100 ppm, female adults, examined after 1 day, 25° C., read-out: pesticidal rate
Method in brief: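 Acetone solution of test compound at a predetermined concentration dried as a film in a 9 cm petri dish; female adult cockroaches released onto it and kept at 25° C. Living and dead counted after 1 day; five insects per group, two replicates.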

N#Cc1cccc(C(=O)Nc2cccc(C(=O)Nc3c(I)cc(C(F)(C(F)(F)F)C(F)(F)C(F)(F)F)cc3I)c2F)c1 (stereo not shown) [6-1358]
≥ 70%: pest or weed control at 1 ppm (Spodoptera litura) | pest or weed control at 1 ppm (Plutella xylostella) | pest or weed control at 1 ppm (Adoxophyes honmai) | pest or weed control at 1 ppm (Choristoneura magnanima) | pest or weed control at 1 ppm (Helicoverpa armigera) | pest or weed control at 100 ppm (Laodelphax striatellus) | pest or weed control at 100 ppm (Musca domestica) | pest or weed control at 100 ppm (Blattella germanica)

O=C(Nc1cccc(C(=O)Nc2c(Br)cc(C(F)(C(F)(F)F)C(F)(F)F)cc2C(F)(F)F)c1F)c1ccc(F)cc1 [6-1577]
≥ 70%: pest or weed control at 1 ppm (Spodoptera litura) | pest or weed control at 1 ppm (Plutella xylostella) | pest or weed control at 10 ppm (Adoxophyes honmai) | pest or weed control at 1 ppm (Choristoneura magnanima) | pest or weed control at 1 ppm (Helicoverpa armigera) | pest or weed control at 100 ppm (Laodelphax striatellus) | pest or weed control at 100 ppm (Musca domestica) | pest or weed control at 100 ppm (Blattella germanica)

O=C(Nc1c(Br)cc(C(F)(C(F)(F)F)C(F)(F)F)cc1C(F)(F)F)c1cccc(NC(=O)c2c(F)cccc2F)c1F [6-1596]
≥ 70%: pest or weed control at 1 ppm (Spodoptera litura) | pest or weed control at 1 ppm (Plutella xylostella) | pest or weed control at 1 ppm (Adoxophyes honmai) | pest or weed control at 1 ppm (Choristoneura magnanima) | pest or weed control at 1 ppm (Helicoverpa armigera) | pest or weed control at 100 ppm (Laodelphax striatellus) | pest or weed control at 100 ppm (Musca domestica) | pest or weed control at 100 ppm (Blattella germanica)

O=C(Nc1cccc(C(=O)Nc2c(I)cc(C(F)(C(F)(F)F)C(F)(F)F)cc2C(F)(F)F)c1F)c1ccccc1 [6-1730]
≥ 70%: pest or weed control at 1 ppm (Spodoptera litura) | pest or weed control at 1 ppm (Plutella xylostella) | pest or weed control at 1 ppm (Adoxophyes honmai) | pest or weed control at 1 ppm (Choristoneura magnanima) | pest or weed control at 1 ppm (Helicoverpa armigera) | pest or weed control at 100 ppm (Laodelphax striatellus) | pest or weed control at 100 ppm (Musca domestica) | pest or weed control at 100 ppm (Blattella germanica)

O=C(Nc1cccc(C(=O)Nc2c(I)cc(C(F)(C(F)(F)F)C(F)(F)F)cc2C(F)(F)F)c1F)c1cccc(F)c1 [6-1732]
≥ 70%: pest or weed control at 1 ppm (Spodoptera litura) | pest or weed control at 1 ppm (Plutella xylostella) | pest or weed control at 1 ppm (Adoxophyes honmai) | pest or weed control at 1 ppm (Choristoneura magnanima) | pest or weed control at 1 ppm (Helicoverpa armigera) | pest or weed control at 100 ppm (Laodelphax striatellus) | pest or weed control at 100 ppm (Musca domestica) | pest or weed control at 100 ppm (Blattella germanica)

N#Cc1cccc(C(=O)Nc2cccc(C(=O)Nc3c(I)cc(C(F)(C(F)(F)F)C(F)(F)F)cc3C(F)(F)F)c2F)c1 [6-1750]
≥ 70%: pest or weed control at 1 ppm (Spodoptera litura) | pest or weed control at 1 ppm (Plutella xylostella) | pest or weed control at 1 ppm (Adoxophyes honmai) | pest or weed control at 1 ppm (Choristoneura magnanima) | pest or weed control at 1 ppm (Helicoverpa armigera) | pest or weed control at 100 ppm (Laodelphax striatellus) | pest or weed control at 100 ppm (Musca domestica) | pest or weed control at 100 ppm (Blattella germanica)

O=C(Nc1cccc(C(=O)Nc2c(I)cc(C(F)(C(F)(F)F)C(F)(F)C(F)(F)F)cc2C(F)(F)F)c1F)c1ccc(F)cc1 (stereo not shown) [6-1811]
≥ 70%: pest or weed control at 1 ppm (Spodoptera litura) | pest or weed control at 1 ppm (Plutella xylostella) | pest or weed control at 1 ppm (Adoxophyes honmai) | pest or weed control at 1 ppm (Choristoneura magnanima) | pest or weed control at 1 ppm (Helicoverpa armigera) | pest or weed control at 100 ppm (Laodelphax striatellus) | pest or weed control at 100 ppm (Musca domestica) | pest or weed control at 100 ppm (Blattella germanica)

CN(C(=O)c1cccnc1Cl)c1cccc(C(=O)Nc2c(Br)cc(C(F)(C(F)(F)F)C(F)(F)C(F)(F)F)cc2C(F)(F)F)c1 (stereo not shown) [7-382]
≥ 70%: pest or weed control at 1 ppm (Spodoptera litura) | pest or weed control at 1 ppm (Plutella xylostella) | pest or weed control at 1 ppm (Adoxophyes honmai) | pest or weed control at 1 ppm (Choristoneura magnanima) | pest or weed control at 1 ppm (Helicoverpa armigera) | pest or weed control at 100 ppm (Laodelphax striatellus) | pest or weed control at 100 ppm (Musca domestica) | pest or weed control at 100 ppm (Blattella germanica)

CN(C(=O)c1cccc(C#N)c1)c1cccc(C(=O)Nc2c(I)cc(C(F)(C(F)(F)F)C(F)(F)F)cc2C(F)(F)F)c1 [7-444]
≥ 70%: pest or weed control at 1 ppm (Spodoptera litura) | pest or weed control at 1 ppm (Plutella xylostella) | pest or weed control at 10 ppm (Adoxophyes honmai) | pest or weed control at 1 ppm (Choristoneura magnanima) | pest or weed control at 1 ppm (Helicoverpa armigera) | pest or weed control at 100 ppm (Laodelphax striatellus) | pest or weed control at 100 ppm (Musca domestica) | pest or weed control at 100 ppm (Blattella germanica)

CN(C(=O)c1cccnc1Cl)c1cccc(C(=O)Nc2c(I)cc(C(F)(C(F)(F)F)C(F)(F)C(F)(F)F)cc2C(F)(F)F)c1 (stereo not shown) [7-538]
≥ 70%: pest or weed control at 1 ppm (Spodoptera litura) | pest or weed control at 1 ppm (Plutella xylostella) | pest or weed control at 1 ppm (Adoxophyes honmai) | pest or weed control at 10 ppm (Choristoneura magnanima; concentration 10 ppm) | pest or weed control at 1 ppm (Helicoverpa armigera) | pest or weed control at 100 ppm (Laodelphax striatellus) | pest or weed control at 100 ppm (Musca domestica) | pest or weed control at 100 ppm (Blattella germanica)

CN(C(=O)c1cccc(F)c1)c1cccc(C(=O)Nc2c(Br)cc(C(F)(C(F)(F)F)C(F)(F)F)cc2Br)c1F [7-1106]
≥ 70%: pest or weed control at 1 ppm (Spodoptera litura) | pest or weed control at 1 ppm (Plutella xylostella) | pest or weed control at 1 ppm (Adoxophyes honmai) | pest or weed control at 1 ppm (Choristoneura magnanima) | pest or weed control at 1 ppm (Helicoverpa armigera) | pest or weed control at 100 ppm (Laodelphax striatellus) | pest or weed control at 100 ppm (Musca domestica) | pest or weed control at 100 ppm (Blattella germanica)

CN(C(=O)c1cccc(F)c1)c1cccc(C(=O)Nc2c(I)cc(C(F)(C(F)(F)F)C(F)(F)F)cc2I)c1F [7-1262]
≥ 70%: pest or weed control at 1 ppm (Spodoptera litura) | pest or weed control at 1 ppm (Plutella xylostella) | pest or weed control at 1 ppm (Adoxophyes honmai) | pest or weed control at 1 ppm (Choristoneura magnanima) | pest or weed control at 1 ppm (Helicoverpa armigera) | pest or weed control at 100 ppm (Laodelphax striatellus) | pest or weed control at 100 ppm (Musca domestica) | pest or weed control at 100 ppm (Blattella germanica)

CN(C(=O)c1cccc(C#N)c1)c1cccc(C(=O)Nc2c(I)cc(C(F)(C(F)(F)F)C(F)(F)F)cc2I)c1F [7-1280]
≥ 70%: pest or weed control at 1 ppm (Spodoptera litura) | pest or weed control at 1 ppm (Plutella xylostella) | pest or weed control at 1 ppm (Adoxophyes honmai) | pest or weed control at 1 ppm (Choristoneura magnanima) | pest or weed control at 1 ppm (Helicoverpa armigera) | pest or weed control at 100 ppm (Laodelphax striatellus) | pest or weed control at 100 ppm (Musca domestica) | pest or weed control at 100 ppm (Blattella germanica)

CN(C(=O)c1ccc(Cl)nc1)c1cccc(C(=O)Nc2c(I)cc(C(F)(C(F)(F)F)C(F)(F)F)cc2I)c1F [7-1303]
≥ 70%: pest or weed control at 1 ppm (Spodoptera litura) | pest or weed control at 1 ppm (Plutella xylostella) | pest or weed control at 1 ppm (Adoxophyes honmai) | pest or weed control at 1 ppm (Choristoneura magnanima) | pest or weed control at 1 ppm (Helicoverpa armigera) | pest or weed control at 100 ppm (Laodelphax striatellus) | pest or weed control at 100 ppm (Musca domestica) | pest or weed control at 100 ppm (Blattella germanica)

CN(C(=O)c1cccc(F)c1)c1cccc(C(=O)Nc2c(Br)cc(C(F)(C(F)(F)F)C(F)(F)F)cc2C(F)(F)F)c1F [7-1576]
≥ 70%: pest or weed control at 1 ppm (Spodoptera litura) | pest or weed control at 1 ppm (Plutella xylostella) | pest or weed control at 1 ppm (Adoxophyes honmai) | pest or weed control at 1 ppm (Choristoneura magnanima) | pest or weed control at 1 ppm (Helicoverpa armigera) | pest or weed control at 100 ppm (Laodelphax striatellus) | pest or weed control at 100 ppm (Musca domestica) | pest or weed control at 100 ppm (Blattella germanica)

CN(C(=O)c1cccc(C#N)c1)c1cccc(C(=O)Nc2c(I)cc(C(F)(C(F)(F)F)C(F)(F)F)cc2C(F)(F)F)c1F [7-1750]
≥ 70%: pest or weed control at 1 ppm (Spodoptera litura) | pest or weed control at 1 ppm (Plutella xylostella) | pest or weed control at 1 ppm (Adoxophyes honmai) | pest or weed control at 1 ppm (Choristoneura magnanima) | pest or weed control at 1 ppm (Helicoverpa armigera) | pest or weed control at 100 ppm (Laodelphax striatellus) | pest or weed control at 100 ppm (Musca domestica) | pest or weed control at 100 ppm (Blattella germanica)

CN(C(=O)c1ccc(Cl)nc1)c1cccc(C(=O)Nc2c(I)cc(C(F)(C(F)(F)F)C(F)(F)F)cc2C(F)(F)F)c1F [7-1773]
≥ 70%: pest or weed control at 1 ppm (Spodoptera litura) | pest or weed control at 1 ppm (Plutella xylostella) | pest or weed control at 10 ppm (Adoxophyes honmai) | pest or weed control at 1 ppm (Choristoneura magnanima) | pest or weed control at 1 ppm (Helicoverpa armigera) | pest or weed control at 100 ppm (Laodelphax striatellus) | pest or weed control at 100 ppm (Musca domestica) | pest or weed control at 100 ppm (Blattella germanica)
